{"source": "ChEMBL document CHEMBL2074400", "about": "“Transporter-mediated renal handling of nafamostat mesilate” (J Pharm Sci, 2004)", "biological_target": "ATP-dependent translocase ABCB1 (Homo sapiens, UniProt P08183)", "sequence (P08183 whole entry)": "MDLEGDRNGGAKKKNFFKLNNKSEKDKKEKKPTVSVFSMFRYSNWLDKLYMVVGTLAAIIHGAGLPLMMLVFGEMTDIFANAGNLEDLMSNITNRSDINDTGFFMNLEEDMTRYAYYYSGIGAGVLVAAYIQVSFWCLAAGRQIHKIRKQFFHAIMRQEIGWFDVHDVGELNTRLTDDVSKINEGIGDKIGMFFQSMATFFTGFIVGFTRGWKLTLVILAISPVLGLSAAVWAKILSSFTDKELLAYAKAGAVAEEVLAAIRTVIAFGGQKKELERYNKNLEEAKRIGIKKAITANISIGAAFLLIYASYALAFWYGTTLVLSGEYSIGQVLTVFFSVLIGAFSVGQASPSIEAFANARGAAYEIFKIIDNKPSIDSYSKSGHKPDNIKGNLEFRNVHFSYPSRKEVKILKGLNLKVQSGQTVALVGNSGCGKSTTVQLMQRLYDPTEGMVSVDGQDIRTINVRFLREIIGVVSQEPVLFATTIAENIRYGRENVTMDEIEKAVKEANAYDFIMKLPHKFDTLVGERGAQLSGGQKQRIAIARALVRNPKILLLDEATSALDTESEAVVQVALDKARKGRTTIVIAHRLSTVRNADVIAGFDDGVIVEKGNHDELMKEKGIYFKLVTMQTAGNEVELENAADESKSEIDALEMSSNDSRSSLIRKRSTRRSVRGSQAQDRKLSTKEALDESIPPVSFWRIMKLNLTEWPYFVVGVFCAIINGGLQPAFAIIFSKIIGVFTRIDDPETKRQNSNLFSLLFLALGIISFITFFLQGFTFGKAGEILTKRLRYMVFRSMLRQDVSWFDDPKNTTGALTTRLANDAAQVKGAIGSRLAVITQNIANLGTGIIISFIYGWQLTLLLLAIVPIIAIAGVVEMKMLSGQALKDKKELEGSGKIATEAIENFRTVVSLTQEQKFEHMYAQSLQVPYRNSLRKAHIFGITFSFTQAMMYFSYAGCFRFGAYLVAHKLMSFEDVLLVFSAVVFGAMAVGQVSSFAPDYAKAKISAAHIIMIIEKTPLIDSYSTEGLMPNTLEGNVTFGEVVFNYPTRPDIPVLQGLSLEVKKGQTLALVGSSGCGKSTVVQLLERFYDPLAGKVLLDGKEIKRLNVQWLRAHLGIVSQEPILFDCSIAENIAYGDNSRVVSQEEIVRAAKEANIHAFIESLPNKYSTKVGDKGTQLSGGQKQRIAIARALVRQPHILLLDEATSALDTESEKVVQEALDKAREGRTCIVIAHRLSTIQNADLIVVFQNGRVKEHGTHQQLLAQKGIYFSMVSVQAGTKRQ", "assay": "TP_TRANSPORTER: transepithelial transport in LLC-GA5-COL150 cells", "format": "functional, cell-based", "conditions": "pig", "data": [{"smiles": "CS(=O)(=O)O.N=C(N)Nc1ccc(C(=O)Oc2ccc3cc(C(=N)N)ccc3c2)cc1", "values": [{"measurement": "Activity", "result": "is not a substrate [-]"}]}]}
